Reference: patent publication USRE50642E1, “Anti-androgens for the treatment of non-metastatic castrate-resistant prostate cancer” (Aragon Pharmaceuticals, Inc., priority 2012, dated 2025)

Experiments:
[1] = tested on: male humans with non-metastatic castration-resistant prostate cancer; assay: Phase II clinical trial in non-metastatic castration-resistant prostate cancer, PSA decline from baseline; type: in vivo, human; conditions: 240 mg orally, continuous daily dosing schedule
[2] = tested on: non-castrate hormone-sensitive and bicalutamide-resistant human prostate cancer xenograft models; conditions: non-castrate hormone-sensitive and bicalutamide-resistant xenografts; Clegg et al. Cancer Res 2012; cited from earlier work
T877A AR mutant = biological target: T1, T877A AR mutant (Homo sapiens, UniProt P10275, T878A); conditions: cited from earlier work
T1 sequence (P10275 1-920 T878A): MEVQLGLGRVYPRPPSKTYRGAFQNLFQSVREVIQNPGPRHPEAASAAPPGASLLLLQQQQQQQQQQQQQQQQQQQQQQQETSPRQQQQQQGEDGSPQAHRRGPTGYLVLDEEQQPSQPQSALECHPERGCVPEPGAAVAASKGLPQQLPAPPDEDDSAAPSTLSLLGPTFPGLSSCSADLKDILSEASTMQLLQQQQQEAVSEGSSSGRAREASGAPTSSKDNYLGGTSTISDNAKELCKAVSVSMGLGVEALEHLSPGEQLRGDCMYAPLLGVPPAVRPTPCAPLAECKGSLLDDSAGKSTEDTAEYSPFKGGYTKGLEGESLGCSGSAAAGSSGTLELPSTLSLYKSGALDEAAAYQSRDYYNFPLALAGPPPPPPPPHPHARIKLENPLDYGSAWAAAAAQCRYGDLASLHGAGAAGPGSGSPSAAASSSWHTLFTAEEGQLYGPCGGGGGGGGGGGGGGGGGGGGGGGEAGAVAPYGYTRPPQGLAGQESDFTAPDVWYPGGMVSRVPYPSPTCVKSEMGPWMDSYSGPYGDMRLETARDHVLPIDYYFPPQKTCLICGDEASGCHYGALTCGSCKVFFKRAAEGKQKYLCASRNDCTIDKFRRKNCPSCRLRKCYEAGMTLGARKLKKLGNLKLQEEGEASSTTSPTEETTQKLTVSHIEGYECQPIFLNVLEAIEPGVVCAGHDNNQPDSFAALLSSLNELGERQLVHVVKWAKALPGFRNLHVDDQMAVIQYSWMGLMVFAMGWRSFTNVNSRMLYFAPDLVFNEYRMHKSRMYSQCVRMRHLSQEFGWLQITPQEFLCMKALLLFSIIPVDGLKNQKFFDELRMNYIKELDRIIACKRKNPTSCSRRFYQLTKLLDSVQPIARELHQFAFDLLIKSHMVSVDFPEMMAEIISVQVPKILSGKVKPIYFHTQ

Row | Compound | PSA50 (≥50% decline in PSA from baseline), share of males ([1]; at 3 months) | PSA90 (≥90% decline in PSA from baseline), share of males ([1]; at 3 months) | PSA50 (≥50% decline in PSA from baseline), share of males ([1]; at 6 months) | PSA90 (≥90% decline in PSA from baseline), share of males ([1]; at 6 months) | tumor regression [2] | activity in T877A AR mutant (T877A AR mutant)
1 | CNC(=O)c1ccc(N2C(=S)N(c3cnc(C#N)c(C(F)(F)F)c3)C(=O)C23CCC3)cc1F [4-[7-(6-cyano-5-trifluoromethylpyridin-3-yl)-8-oxo-6-thioxo-5,7-diazaspiro[3.4]oct-5-yl]-2-fluoro-N-methylbenzamide] | 91% | 38% | 91% | 55% | partial or complete tumor regression | 
2 | CC(C)(O)C(=O)Nc1ccc([N+](=O)[O-])c(C(F)(F)F)c1 [hydroxyflutamide] |  |  |  |  |  | act as AR agonists
